Test results reported in ChEMBL document CHEMBL5653631, “A Potent and Selective ULK1 Inhibitor Suppresses Autophagy and Sensitizes Cancer Cells to Nutrient Stress” (iScience, 2018).
Each block holds one compound with its values, some of them ahead of it.

What was measured:
[1] = biological target: Receptor tyrosine-protein kinase erbB-4 (Homo sapiens) (UniProt Q15303); test: Inhibition of human recombinant ErbB4 at 500 nM related to control ULK1
[2] = biological target: MAP kinase-activated protein kinase 3 (Homo sapiens) (UniProt Q16644); test: Inhibition of human recombinant MAPKAPK3 at 40 nM in presence of ATP by radiometric assay relative to control
Sequence of MAP kinase-activated protein kinase 3 (Homo sapiens) (Q16644 whole entry, looked up): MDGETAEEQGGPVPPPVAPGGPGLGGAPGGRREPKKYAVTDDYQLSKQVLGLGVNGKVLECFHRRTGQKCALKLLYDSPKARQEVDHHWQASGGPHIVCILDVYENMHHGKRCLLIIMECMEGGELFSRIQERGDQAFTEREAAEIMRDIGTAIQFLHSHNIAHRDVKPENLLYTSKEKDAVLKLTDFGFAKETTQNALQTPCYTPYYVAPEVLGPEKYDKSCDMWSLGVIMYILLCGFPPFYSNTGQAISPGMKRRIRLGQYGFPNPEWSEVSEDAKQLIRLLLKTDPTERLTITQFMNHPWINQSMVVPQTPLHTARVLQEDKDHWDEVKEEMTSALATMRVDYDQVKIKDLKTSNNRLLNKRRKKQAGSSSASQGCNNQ

[3] = biological target: Proto-oncogene tyrosine-protein kinase receptor Ret (Homo sapiens) (UniProt P07949); test: Inhibition of human recombinant RET at 40 nM in presence of ATP by radiometric assay relative to control
Sequence of Proto-oncogene tyrosine-protein kinase receptor Ret (Homo sapiens) (P07949 whole entry): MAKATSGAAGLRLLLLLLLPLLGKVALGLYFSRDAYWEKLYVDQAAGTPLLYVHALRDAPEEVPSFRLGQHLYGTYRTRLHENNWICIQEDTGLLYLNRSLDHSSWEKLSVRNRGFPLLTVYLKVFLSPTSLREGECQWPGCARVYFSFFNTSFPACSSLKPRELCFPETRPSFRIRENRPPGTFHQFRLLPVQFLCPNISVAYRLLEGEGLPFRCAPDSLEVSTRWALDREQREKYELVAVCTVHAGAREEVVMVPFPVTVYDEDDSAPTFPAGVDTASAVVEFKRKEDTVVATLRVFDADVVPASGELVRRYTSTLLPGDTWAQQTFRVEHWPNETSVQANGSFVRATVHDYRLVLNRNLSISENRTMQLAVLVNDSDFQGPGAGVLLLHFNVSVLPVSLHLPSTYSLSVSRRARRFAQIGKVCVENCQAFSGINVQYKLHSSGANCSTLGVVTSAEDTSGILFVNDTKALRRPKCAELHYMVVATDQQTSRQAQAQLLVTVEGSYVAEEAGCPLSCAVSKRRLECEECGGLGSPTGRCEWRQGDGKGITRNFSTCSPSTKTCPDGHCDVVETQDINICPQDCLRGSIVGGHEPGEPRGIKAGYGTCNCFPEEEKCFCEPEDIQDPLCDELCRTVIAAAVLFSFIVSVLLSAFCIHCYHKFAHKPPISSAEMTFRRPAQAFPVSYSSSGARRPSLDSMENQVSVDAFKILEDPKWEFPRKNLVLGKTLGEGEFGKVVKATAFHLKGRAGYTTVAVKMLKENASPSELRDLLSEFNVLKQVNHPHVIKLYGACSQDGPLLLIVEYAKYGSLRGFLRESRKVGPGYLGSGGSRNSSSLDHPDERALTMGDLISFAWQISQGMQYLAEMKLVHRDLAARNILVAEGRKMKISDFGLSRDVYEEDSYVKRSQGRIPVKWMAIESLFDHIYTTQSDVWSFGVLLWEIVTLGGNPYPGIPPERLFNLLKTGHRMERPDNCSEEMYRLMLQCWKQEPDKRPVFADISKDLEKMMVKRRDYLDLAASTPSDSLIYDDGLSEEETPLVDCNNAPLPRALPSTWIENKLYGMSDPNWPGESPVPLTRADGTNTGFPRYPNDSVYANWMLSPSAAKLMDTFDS

[4] = biological target: T1, Serine/threonine-protein kinase TAO3 (Homo sapiens) (UniProt Q9H2K8); test: Inhibition of human recombinant TAO3 at 40 nM in presence of ATP by radiometric assay relative to control
T1 sequence (whole entry): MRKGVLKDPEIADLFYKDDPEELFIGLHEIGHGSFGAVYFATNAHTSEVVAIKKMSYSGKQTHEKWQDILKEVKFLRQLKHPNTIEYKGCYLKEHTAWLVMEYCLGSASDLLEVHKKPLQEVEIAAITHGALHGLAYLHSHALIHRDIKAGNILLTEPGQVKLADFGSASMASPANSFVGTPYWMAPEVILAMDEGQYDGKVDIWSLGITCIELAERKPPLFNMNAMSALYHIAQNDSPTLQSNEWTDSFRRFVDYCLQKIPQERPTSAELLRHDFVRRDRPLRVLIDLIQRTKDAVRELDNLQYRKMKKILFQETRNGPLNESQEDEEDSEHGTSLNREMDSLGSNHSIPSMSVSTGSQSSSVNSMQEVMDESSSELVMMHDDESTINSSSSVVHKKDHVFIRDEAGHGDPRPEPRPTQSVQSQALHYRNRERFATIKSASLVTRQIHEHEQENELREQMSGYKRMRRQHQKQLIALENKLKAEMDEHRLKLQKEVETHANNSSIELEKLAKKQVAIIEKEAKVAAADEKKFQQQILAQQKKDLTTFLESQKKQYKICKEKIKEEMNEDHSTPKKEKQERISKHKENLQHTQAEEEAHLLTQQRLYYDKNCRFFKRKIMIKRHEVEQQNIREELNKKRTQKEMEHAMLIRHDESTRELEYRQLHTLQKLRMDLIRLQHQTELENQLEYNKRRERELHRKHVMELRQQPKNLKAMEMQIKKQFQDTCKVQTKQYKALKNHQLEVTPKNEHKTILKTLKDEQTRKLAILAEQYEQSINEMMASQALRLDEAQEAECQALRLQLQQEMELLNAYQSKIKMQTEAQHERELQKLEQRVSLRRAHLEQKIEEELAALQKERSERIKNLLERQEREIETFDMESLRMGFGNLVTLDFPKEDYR

[5] = biological target: Dual specificity protein kinase CLK3 (Homo sapiens) (UniProt P49761); test: Inhibition of human recombinant CLK3 at 40 nM related to control ULK1
Sequence of Dual specificity protein kinase CLK3 (Homo sapiens) (P49761 whole entry, looked up): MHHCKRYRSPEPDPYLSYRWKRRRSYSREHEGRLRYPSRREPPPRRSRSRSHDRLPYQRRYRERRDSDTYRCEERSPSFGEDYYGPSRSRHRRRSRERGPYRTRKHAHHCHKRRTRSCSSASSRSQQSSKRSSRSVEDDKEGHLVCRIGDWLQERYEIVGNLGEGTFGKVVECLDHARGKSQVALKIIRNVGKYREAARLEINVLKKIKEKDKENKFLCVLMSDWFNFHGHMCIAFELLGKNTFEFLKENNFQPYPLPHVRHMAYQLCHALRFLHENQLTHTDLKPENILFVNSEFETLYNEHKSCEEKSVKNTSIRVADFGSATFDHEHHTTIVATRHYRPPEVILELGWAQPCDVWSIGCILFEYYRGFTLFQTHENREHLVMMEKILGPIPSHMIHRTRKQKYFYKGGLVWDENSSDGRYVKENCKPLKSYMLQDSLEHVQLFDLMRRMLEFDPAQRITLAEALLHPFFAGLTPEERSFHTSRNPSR

[6] = biological target: Calcium/calmodulin-dependent protein kinase type II subunit gamma (Homo sapiens) (UniProt Q13555); test: Inhibition of human recombinant CaMK2g at 15 nM in presence of ATP by radiometric assay relative to control
Sequence of Calcium/calmodulin-dependent protein kinase type II subunit gamma (Homo sapiens) (Q13555 whole entry): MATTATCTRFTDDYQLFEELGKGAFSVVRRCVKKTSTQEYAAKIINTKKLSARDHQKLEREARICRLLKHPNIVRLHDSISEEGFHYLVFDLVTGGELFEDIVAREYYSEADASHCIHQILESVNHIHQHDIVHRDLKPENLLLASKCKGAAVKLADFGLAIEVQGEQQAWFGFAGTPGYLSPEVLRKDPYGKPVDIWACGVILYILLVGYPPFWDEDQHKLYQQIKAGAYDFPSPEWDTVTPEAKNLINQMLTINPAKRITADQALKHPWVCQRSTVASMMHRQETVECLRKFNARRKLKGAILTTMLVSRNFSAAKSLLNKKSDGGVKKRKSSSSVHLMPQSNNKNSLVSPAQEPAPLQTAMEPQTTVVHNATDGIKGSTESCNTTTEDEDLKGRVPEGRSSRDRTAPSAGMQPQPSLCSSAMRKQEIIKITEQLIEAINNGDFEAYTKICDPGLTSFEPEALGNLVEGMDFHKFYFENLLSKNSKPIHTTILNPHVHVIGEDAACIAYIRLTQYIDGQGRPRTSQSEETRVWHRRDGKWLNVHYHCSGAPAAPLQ

[7] = biological target: Dual specificity protein kinase CLK3 (Homo sapiens) (UniProt P49761); test: Inhibition of human recombinant CLK3 at 15 nM in presence of ATP by radiometric assay relative to control
[8] = biological target: Mitogen-activated protein kinase 9 (Homo sapiens) (UniProt P45984); test: Inhibition of human recombinant JNK2 at 15 nM in presence of ATP by radiometric assay relative to control
Sequence of Mitogen-activated protein kinase 9 (Homo sapiens) (P45984 whole entry, looked up): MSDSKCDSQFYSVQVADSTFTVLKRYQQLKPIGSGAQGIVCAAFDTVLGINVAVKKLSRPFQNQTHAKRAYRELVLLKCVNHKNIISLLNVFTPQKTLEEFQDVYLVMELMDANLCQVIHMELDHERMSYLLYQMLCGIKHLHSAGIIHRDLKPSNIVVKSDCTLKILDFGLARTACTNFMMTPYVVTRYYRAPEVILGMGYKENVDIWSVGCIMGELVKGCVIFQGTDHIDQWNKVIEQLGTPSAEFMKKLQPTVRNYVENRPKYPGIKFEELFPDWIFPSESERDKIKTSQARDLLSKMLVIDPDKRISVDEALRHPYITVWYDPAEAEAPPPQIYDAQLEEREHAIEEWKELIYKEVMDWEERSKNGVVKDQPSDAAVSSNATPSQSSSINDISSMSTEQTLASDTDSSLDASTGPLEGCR

[9] = biological target: T2, Myosin-IIIb (Homo sapiens) (UniProt Q8WXR4); test: Inhibition of human recombinant MYO3B at 15 nM in presence of ATP by radiometric assay relative to control
T2 sequence (whole entry): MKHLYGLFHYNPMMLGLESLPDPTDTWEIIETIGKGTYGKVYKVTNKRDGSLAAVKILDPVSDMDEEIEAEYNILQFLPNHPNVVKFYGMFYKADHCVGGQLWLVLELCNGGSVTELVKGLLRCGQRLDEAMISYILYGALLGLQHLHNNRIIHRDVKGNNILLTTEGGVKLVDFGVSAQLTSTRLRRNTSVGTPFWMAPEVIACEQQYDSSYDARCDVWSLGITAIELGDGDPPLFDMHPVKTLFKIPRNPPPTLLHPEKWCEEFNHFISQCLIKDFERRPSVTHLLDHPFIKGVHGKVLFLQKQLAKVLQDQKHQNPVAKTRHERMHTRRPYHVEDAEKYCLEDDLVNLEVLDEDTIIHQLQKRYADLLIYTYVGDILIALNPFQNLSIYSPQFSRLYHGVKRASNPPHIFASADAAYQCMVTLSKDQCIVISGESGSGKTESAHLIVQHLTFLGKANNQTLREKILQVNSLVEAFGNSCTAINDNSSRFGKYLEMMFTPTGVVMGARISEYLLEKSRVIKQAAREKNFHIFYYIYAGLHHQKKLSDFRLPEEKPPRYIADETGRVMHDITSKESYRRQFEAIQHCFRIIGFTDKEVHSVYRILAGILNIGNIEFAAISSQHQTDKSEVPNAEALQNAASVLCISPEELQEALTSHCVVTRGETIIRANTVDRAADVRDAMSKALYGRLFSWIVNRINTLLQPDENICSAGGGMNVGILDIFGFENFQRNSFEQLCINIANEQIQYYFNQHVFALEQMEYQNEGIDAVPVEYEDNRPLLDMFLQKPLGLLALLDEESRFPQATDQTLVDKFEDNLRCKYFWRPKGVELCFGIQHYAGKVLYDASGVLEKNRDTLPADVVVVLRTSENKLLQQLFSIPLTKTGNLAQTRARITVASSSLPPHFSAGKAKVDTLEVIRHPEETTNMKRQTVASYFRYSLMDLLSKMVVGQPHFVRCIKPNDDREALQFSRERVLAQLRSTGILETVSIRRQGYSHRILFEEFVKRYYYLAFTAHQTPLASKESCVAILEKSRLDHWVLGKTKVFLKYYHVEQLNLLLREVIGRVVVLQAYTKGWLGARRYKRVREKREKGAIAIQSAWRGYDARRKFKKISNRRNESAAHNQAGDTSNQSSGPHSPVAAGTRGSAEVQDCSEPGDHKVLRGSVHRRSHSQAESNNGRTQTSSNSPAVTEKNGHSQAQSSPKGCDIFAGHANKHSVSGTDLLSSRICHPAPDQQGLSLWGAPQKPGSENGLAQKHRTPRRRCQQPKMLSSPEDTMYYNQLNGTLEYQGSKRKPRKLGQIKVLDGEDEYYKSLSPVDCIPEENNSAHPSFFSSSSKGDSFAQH

[10] = biological target: Cyclin-dependent kinase 3 (Homo sapiens) (UniProt Q00526); test: Inhibition of human recombinant CDK3 at 15 nM related to control ULK1
Sequence of Cyclin-dependent kinase 3 (Homo sapiens) (Q00526 whole entry, looked up): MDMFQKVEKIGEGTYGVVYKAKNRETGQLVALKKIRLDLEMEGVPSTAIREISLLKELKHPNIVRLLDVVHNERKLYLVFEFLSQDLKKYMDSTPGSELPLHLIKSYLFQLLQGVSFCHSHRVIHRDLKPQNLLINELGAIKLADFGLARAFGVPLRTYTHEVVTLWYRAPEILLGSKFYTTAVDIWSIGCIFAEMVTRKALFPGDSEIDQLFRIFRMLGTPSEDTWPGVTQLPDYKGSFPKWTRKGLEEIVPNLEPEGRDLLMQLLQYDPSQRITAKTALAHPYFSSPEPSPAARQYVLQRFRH

[11] = biological target: Leucine-rich repeat serine/threonine-protein kinase 2 (Homo sapiens) (UniProt Q5S007); test: Inhibition of human recombinant LRRK2 at 15 nM related to control ULK1
[12] = biological target: Serine/threonine-protein kinase MRCK alpha (Homo sapiens) (UniProt Q5VT25); test: Inhibition of human recombinant MRCKa at 15 nM related to control ULK1

Sequence of Receptor tyrosine-protein kinase erbB-4 (Homo sapiens) (Q15303 whole entry): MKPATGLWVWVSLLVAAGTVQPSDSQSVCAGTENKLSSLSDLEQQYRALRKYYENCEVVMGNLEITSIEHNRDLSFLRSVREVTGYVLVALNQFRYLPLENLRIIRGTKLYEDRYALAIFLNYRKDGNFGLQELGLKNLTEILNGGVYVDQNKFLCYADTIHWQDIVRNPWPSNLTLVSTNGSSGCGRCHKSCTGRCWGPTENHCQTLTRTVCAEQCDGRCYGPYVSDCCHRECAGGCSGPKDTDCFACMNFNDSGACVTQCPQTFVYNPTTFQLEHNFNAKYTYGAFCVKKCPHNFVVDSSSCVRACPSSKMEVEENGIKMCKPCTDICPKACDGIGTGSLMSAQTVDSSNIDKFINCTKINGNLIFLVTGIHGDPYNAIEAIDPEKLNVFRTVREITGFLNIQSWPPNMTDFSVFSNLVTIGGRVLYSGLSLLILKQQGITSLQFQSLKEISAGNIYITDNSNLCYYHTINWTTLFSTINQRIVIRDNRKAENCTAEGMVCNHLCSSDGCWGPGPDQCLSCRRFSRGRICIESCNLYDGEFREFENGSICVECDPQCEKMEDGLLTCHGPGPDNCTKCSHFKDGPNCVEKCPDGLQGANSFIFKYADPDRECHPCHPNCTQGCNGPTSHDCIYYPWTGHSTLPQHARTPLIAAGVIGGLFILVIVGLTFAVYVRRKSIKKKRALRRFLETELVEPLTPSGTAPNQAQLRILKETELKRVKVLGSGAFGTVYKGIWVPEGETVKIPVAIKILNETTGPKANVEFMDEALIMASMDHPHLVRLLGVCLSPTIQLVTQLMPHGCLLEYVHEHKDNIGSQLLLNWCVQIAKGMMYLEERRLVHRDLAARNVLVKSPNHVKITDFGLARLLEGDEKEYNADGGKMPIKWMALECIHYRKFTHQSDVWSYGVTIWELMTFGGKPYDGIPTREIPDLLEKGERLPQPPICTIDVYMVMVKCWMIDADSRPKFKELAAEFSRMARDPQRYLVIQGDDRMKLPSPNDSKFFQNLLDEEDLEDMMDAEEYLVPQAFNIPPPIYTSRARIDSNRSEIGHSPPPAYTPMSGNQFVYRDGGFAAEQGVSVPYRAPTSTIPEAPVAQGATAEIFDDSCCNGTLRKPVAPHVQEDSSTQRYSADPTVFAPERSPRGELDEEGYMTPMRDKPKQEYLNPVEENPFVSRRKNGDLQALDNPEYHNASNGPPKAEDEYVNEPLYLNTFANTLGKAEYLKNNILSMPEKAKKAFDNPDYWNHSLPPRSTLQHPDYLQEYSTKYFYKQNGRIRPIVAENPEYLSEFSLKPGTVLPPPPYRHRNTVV

fold change (FC) [1]: 0
Structure (SMILES): CNC(=O)c1ccccc1Oc1nc(Nc2cc(OC)c(OC)c(OC)c2)ncc1Br

inhibition [2]: 0%
inhibition [3]: 0%
inhibition [4]: 0%
fold change (FC) [5]: 0
Structure (SMILES): O=C(N[C@@H](C1CC1)C(F)(F)F)c1cc(-c2cnn3cc(-c4ccc(F)cc4)cnc23)cs1

inhibition [6]: 22%
inhibition [7]: 1%
inhibition [8]: 0%
inhibition [9]: 6%
fold change (FC) [10]: 0.06
fold change (FC) [11]: 0.03
fold change (FC) [12]: 0.13
Structure (SMILES): CC(C)[C@H](NC(=O)c1cc(-c2cnn3cc(-c4ccc(OCCN5CCCCC5)cc4)cnc23)cs1)C(F)(F)F
